Assay results published in patent US3956338A, “4,6-Dibromo-5-hydroxy-2-pyridine nitrile compounds and method of preparation” (The Dow Chemical Company, priority 1975, dated 1976).

Tests used:
Wild Oats [1] = test: Comparison with BROMINIL as post-emergent herbicide; assay type: in vivo; conditions: for minimal effective concentration: Avena fatua, post-emergence, post-emergent spray, 0.2% Tween 20, 300 gallons per acre, read-out: Concentration Required for adequate control
Experimental: (§1) All plants were grown in a greenhouse and sprayed with the test solution when they attained 1 to 2 inches in height. The test solutions were made up in water, using a 0.2% Tween 20 surfactant (polyoxyethylene derivative of a fatty acid partial ester of sorbitol) and were applied in a total spray volume equivalent to 300 gallons per acre.

Morning Glory [2] = test: as above; assay type: in vivo; conditions: Ipomoea, post-emergence; post-emergent spray, 0.2% Tween 20, 300 gallons per acre; read-out: Concentration Required for adequate control
Experimental: as §1

Buckwheat = test: as above; assay type: in vivo; conditions: post-emergence; post-emergent spray, 0.2% Tween 20, 300 gallons per acre; read-out: Concentration Required for adequate control
Experimental: as §1

Wild Mustard = test: as above; assay type: in vivo; conditions: Brassica, post-emergence; post-emergent spray, 0.2% Tween 20, 300 gallons per acre; read-out: Concentration Required for adequate control
Experimental: as §1

Bindweed [3] = test: as above; assay type: in vivo; conditions: post-emergence; post-emergent spray, 0.2% Tween 20, 300 gallons per acre; read-out: Concentration Required for adequate control
Experimental: as §1

Wheat = test: as above; assay type: in vivo; conditions: Triticum aestivum, post-emergence; post-emergent spray, 0.2% Tween 20, 300 gallons per acre; read-out: Concentration: minimum required for injury of wheat
Experimental: as §1

two-spotted spider mites = test: Standard screening test, control of two-spotted spider mites; assay type: in vivo; conditions: 400 parts per million
Solubility = assay type: physicochemical
plants = test: Comparison with BROMINIL as post-emergent herbicide, overall; assay type: in vivo; conditions: Example 2(C)
Experimental: as §1

Staphylococcus aureus = test: Standard screening test, growth inhibition of microorganism; assay type: cell-based; conditions: 500 ppm
Soybean = test: Pre-emergent herbicide evaluation (Table II); assay type: in vivo; conditions: 4 Lbs/Acre, about 2 weeks after treatment
Source text: (§2) Pots are filled to within 1 inch of the top with a medium-textured soil and seeds of any species considered appropriate (such as pigweed, field bindweed, velvet leaf, cotton, barnyard grass, foxtail, wild oat and crabgrass) are sown in their appropriate area. The seeds are then covered with a 1/2 inch layer of a sandy soil and test chemicals formulated at the desired concentration are drenched onto the soil surface in sufficient volume to wet the top 11/2 to 2 inches of soil. The pots are maintained in the greenhouse and are top-watered as necessary. Final readings are made about 2 weeks after treatment, the exact time depending upon the rate of plant growth. Readings are based on the germination and the growth of treated plants compared with that of untreated plants. Readings of 0% = no visible effects and 100% = all plants dead.
(§3) Compounds found active are subsequently tested over a range of rates which are less than the initial rate. The procedure is the same as described above with the exceptions that the seeds of appropriate species (such as soybean, corn, wheat, ragweed, Johnson grass, etc.) are covered with the same medium-textured soil used to fill the pot, and the chemicals are sprayed onto the soil surface at the desired rate in sufficient volume to cover and wet the soil surface. The pots are maintained, top-watered, and graded as described above.

Barnyard Grass [4] = test: Pre-emergent herbicide evaluation (Table II); assay type: in vivo; conditions: 10 Lbs/Acre, about 2 weeks after treatment
Source text: as §2, §3

Wild Oats [5] = test: Pre-emergent herbicide evaluation (Table II); assay type: in vivo; conditions: about 2 weeks after treatment
Source text: as §2, §3

Morning Glory [6] = test: Pre-emergent herbicide evaluation (Table II); assay type: in vivo; conditions: 4 Lbs/Acre, about 2 weeks after treatment
Source text: as §2, §3

Yellow Foxtail [7] = test: Pre-emergent herbicide evaluation (Table II); assay type: in vivo; conditions: 10 Lbs/Acre, about 2 weeks after treatment
Source text: as §2, §3

Cotton [8] = test: Pre-emergent herbicide evaluation (Table II); assay type: in vivo; conditions: about 2 weeks after treatment
Source text: as §2, §3

White Winter Wheat [9] = test: Pre-emergent herbicide evaluation (Table II); assay type: in vivo; conditions: 4 Lbs/Acre, about 2 weeks after treatment
Source text: as §2, §3

Velvet Leaf [10] = test: Pre-emergent herbicide evaluation (Table II); assay type: in vivo; conditions: 10 Lbs/Acre, about 2 weeks after treatment
Source text: as §2, §3

Pigweeds [11] = test: Pre-emergent herbicide evaluation (Table II); assay type: in vivo; conditions: 2 Lbs/Acre, about 2 weeks after treatment
Source text: as §2, §3

German Millet [12] = test: Pre-emergent herbicide evaluation (Table II); assay type: in vivo; conditions: 2 Lbs/Acre, about 2 weeks after treatment
Source text: as §2, §3

Beans [13] = test: Pre-emergent herbicide evaluation (Table II); assay type: in vivo; conditions: 10 Lbs/Acre, about 2 weeks after treatment
Source text: as §2, §3

Cultured Rice [14] = test: Pre-emergent herbicide evaluation (Table II); assay type: in vivo; conditions: about 2 weeks after treatment
Source text: as §2, §3

Corn [15] = test: Pre-emergent herbicide evaluation (Table II); assay type: in vivo; conditions: 4 Lbs/Acre, about 2 weeks after treatment
Source text: as §2, §3

Sorghum/Milo [16] = test: Pre-emergent herbicide evaluation (Table II); assay type: in vivo; conditions: about 2 weeks after treatment
Source text: as §2, §3

Crabgrass [17] = test: Pre-emergent herbicide evaluation (Table II); assay type: in vivo; conditions: 10 Lbs/Acre, about 2 weeks after treatment
Source text: as §2, §3

Bindweed [18] = test: Pre-emergent herbicide evaluation (Table II); assay type: in vivo; conditions: 10 Lbs/Acre, about 2 weeks after treatment
Source text: as §2, §3

Johnson Grass = test: Pre-emergent herbicide evaluation (Table II); assay type: in vivo; conditions: 4 Lbs/Acre, about 2 weeks after treatment
Source text: as §2, §3

Rape [19] = test: Pre-emergent herbicide evaluation (Table II); assay type: in vivo; conditions: 4 Lbs/Acre, about 2 weeks after treatment
Source text: as §2, §3

Barnyard Grass [20] = test: Post-emergent herbicide evaluation (Table I); assay type: in vivo; conditions: 4000 ppm, 2 weeks after treatment
Experimental: (§4) Pots are filled with a sandy soil, and plants of any species considered appropriate (such as pigweed, field bindweed, velvet leaf, cotton, barnyard grass, foxtail, wild oat, and crabgrass) are grown to an average height of 2 to 4 inches. Plants are then sprayed to run-off with an aqueous solution or dispersion containing the test chemical at the desired concentration. The plants are maintained in the greenhouse and are sub-irrigated as necessary. Final readings are made 2 weeks after treatment. Readings represent the percent kill or control of growth on the treated plants when compared to untreated plants, with 0 = no visible effects and 100 = all plants dead. Compounds found active are subsequently tested over a range of rates which are less than the initial rate. The procedure is the same as described above except that additional species (such as soybean, corn, wheat, ragweed, Johnson grass, etc.) are used. Additionally, test chemicals may be applied to the soil surface by drenching or as a solid to preclude contact with foliage. If foliage is sprayed, the pots are subsequently maintained by sub-irrigation; if chemical application is made to the soil, the pots are top-watered.

Wild Oats [21] = test: Post-emergent herbicide evaluation (Table I); assay type: in vivo; conditions: 4000 ppm, 2 weeks after treatment
Experimental: as §4

Morning Glory [22] = test: Post-emergent herbicide evaluation (Table I); assay type: in vivo; conditions: 2000 ppm, 2 weeks after treatment
Experimental: as §4

Yellow Foxtail [23] = test: Post-emergent herbicide evaluation (Table I); assay type: in vivo; conditions: 4000 ppm, 2 weeks after treatment
Experimental: as §4

Cotton [24] = test: Post-emergent herbicide evaluation (Table I); assay type: in vivo; conditions: 4000 ppm, 2 weeks after treatment
Experimental: as §4

White Winter Wheat [25] = test: Post-emergent herbicide evaluation (Table I); assay type: in vivo; conditions: 2000 ppm, 2 weeks after treatment
Experimental: as §4

Velvet Leaf [26] = test: Post-emergent herbicide evaluation (Table I); assay type: in vivo; conditions: 2 weeks after treatment
Experimental: as §4

Pigweeds [27] = test: Post-emergent herbicide evaluation (Table I); assay type: in vivo; conditions: 1000 ppm, 2 weeks after treatment
Experimental: as §4

German Millet [28] = test: Post-emergent herbicide evaluation (Table I); assay type: in vivo; conditions: 4000 ppm, 2 weeks after treatment
Experimental: as §4

Beans [29] = test: Post-emergent herbicide evaluation (Table I); assay type: in vivo; conditions: 4000 ppm, 2 weeks after treatment
Experimental: as §4

Cultured Rice [30] = test: Post-emergent herbicide evaluation (Table I); assay type: in vivo; conditions: 4000 ppm, 2 weeks after treatment
Experimental: as §4

Corn [31] = test: Post-emergent herbicide evaluation (Table I); assay type: in vivo; conditions: 4000 ppm, 2 weeks after treatment
Experimental: as §4

Sorghum/Milo [32] = test: Post-emergent herbicide evaluation (Table I); assay type: in vivo; conditions: 4000 ppm, 2 weeks after treatment
Experimental: as §4

Crabgrass [33] = test: Post-emergent herbicide evaluation (Table I); assay type: in vivo; conditions: 4000 ppm, 2 weeks after treatment
Experimental: as §4

Soybeans = test: Post-emergent herbicide evaluation (Table I); assay type: in vivo; conditions: 4000 ppm, 2 weeks after treatment
Experimental: as §4

Rape [34] = test: Post-emergent herbicide evaluation (Table I); assay type: in vivo; conditions: 1000 ppm, 2 weeks after treatment
Experimental: as §4

weeds = test: Post- and pre-emergent herbicide evaluation, weeds overall; assay type: in vivo; conditions: Examples 2(A) and 2(B)
Experimental: as §4, with “The procedure is the same as described above except that additional species (such as soybean, corn, wheat, ragweed, Johnson grass, etc.) are used. Additionally, test chemicals may be applied to the soil surface by drenching or as a solid to preclude contact with foliage. If foliage is sprayed, the pots are subsequently maintained by sub-irrigation; if chemical application is made to the soil, the pots are top-watered.” left out
(§5) Pots are filled to within 1 inch of the top with a medium-textured soil and seeds of any species considered appropriate (such as pigweed, field bindweed, velvet leaf, cotton, barnyard grass, foxtail, wild oat and crabgrass) are sown in their appropriate area. […] Final readings are made about 2 weeks after treatment, the exact time depending upon the rate of plant growth. Readings are based on the germination and the growth of treated plants compared with that of untreated plants. Readings of 0% = no visible effects and 100% = all plants dead. […]

crop plants = test: Post- and pre-emergent herbicide evaluation, crop plants overall; assay type: in vivo; conditions: at concentrations effective for weed control
Experimental: as §4, with “The procedure is the same as described above except that additional species (such as soybean, corn, wheat, ragweed, Johnson grass, etc.) are used. Additionally, test chemicals may be applied to the soil surface by drenching or as a solid to preclude contact with foliage. If foliage is sprayed, the pots are subsequently maintained by sub-irrigation; if chemical application is made to the soil, the pots are top-watered.” left out
as §5

N#Cc1cc(Br)c(O)c(Br)c1 [BROMINIL, 3,5-dibromo-4-hydroxy benzonitrile]
minimal effective concentration (Wild Oats [1]): > 4000 µg/mL
minimal effective concentration (Morning Glory [2]): 16 µg/mL
minimal effective concentration (Buckwheat): 16 µg/mL
minimal effective concentration (Wild Mustard): 16 µg/mL
minimal effective concentration (Bindweed [3]): 500 µg/mL
minimal effective concentration (Wheat): 4000 µg/mL

N#Cc1cc(Br)c(O)c(Br)n1 [4,6-dibromo-5-hydroxy-2-pyridine nitrile]
control of two-spotted spider mites (two-spotted spider mites): 100%
minimal effective concentration (Wild Oats [1]): 500 µg/mL
times more active than BROMINIL against wild oats (Wild Oats [1]; post-emergent, relative to BROMINIL): 8 times
minimal effective concentration (Morning Glory [2]): 1000 µg/mL
minimal effective concentration (Buckwheat): 250 µg/mL
minimal effective concentration (Wild Mustard): 62 µg/mL
minimal effective concentration (Bindweed [3]): 4000 µg/mL
minimal effective concentration (Wheat): 2000 µg/mL
solubility in the common organic solvents (Solubility; common organic solvents): soluble in the common organic solvents
solubility in water (Solubility; water): essentially insoluble in water
general activity relative to BROMINIL (plants): generally less active than BROMINIL
growth inhibition of Staphylococcus aureus (Staphylococcus aureus): inhibited growth
% Control (Soybean): 0%
% Control (Barnyard Grass [4]): 40%
% Control (Wild Oats [5]; 4 Lbs/Acre): 70%
% Control (Wild Oats [5]; 10 Lbs/Acre): 85%
% Control (Morning Glory [6]): 15%
% Control (Yellow Foxtail [7]): 80%
% Control (Cotton [8]; 4 Lbs/Acre): 0%
% Control (Cotton [8]; 10 Lbs/Acre): 100%
% Control (White Winter Wheat [9]): 0%
% Control (Velvet Leaf [10]): 40%
% Control (Pigweeds [11]): 100%
% Control (German Millet [12]): 40%
% Control (Beans [13]): 60%
% Control (Cultured Rice [14]; 2 Lbs/Acre): 0%
% Control (Cultured Rice [14]; 4 Lbs/Acre): 15%
% Control (Corn [15]): 20%
% Control (Sorghum/Milo [16]; 2 Lbs/Acre): 0%
% Control (Sorghum/Milo [16]; 4 Lbs/Acre): 15%
% Control (Crabgrass [17]): 50%
% Control (Bindweed [18]): 25%
% Control (Johnson Grass): 0%
% Control (Rape [19]): 25%
Percent Control (Barnyard Grass [20]): 75%
Percent Control (Wild Oats [21]): 65%
Percent Control (Morning Glory [22]): 100%
Percent Control (Yellow Foxtail [23]): 70%
Percent Control (Cotton [24]): 100%
Percent Control (White Winter Wheat [25]): 0%
Percent Control (Velvet Leaf [26]; 1000 ppm): 85%
Percent Control (Velvet Leaf [26]; 2000 ppm): 100%
Percent Control (Pigweeds [27]): 100%
Percent Control (German Millet [28]): 85%
Percent Control (Beans [29]): 70%
Percent Control (Cultured Rice [30]): 0%
Percent Control (Corn [31]): 0%
Percent Control (Sorghum/Milo [32]): 0%
Percent Control (Crabgrass [33]): 100%
Percent Control (Soybeans): 0%
Percent Control (Rape [34]): 100%
herbicidal activity against weeds (weeds): moderately active herbicide against weeds
activity against most crop plants (crop plants): low or nil activity against most crop plants
